The values below come from the supplement of paper PMC8024199.

Holding throughout (assay): drug sensitivity score (DSS) (DSS score); higher = more sensitive (stronger growth inhibition); extreme values may be limits of the assay
Assay [1] relates to Ba/F3 P210-BCR-ABL1 RUNX1wt/wt control (mouse). In short, it runs like this:
(§1)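 Mouse Ba/F3 cells, either CRISPR/Cas9-edited at a target exon or edited-control clones, were screened against a 528-compound library on pre-printed 384-well plates. Each compound was tested at five concentrations across a 10,000-fold range, with 10,000 cells per well in RPMI with 10% FBS for 72 h at 37 °C and 5% CO2. CellTiter-Glo luminescence was scaled between vehicle and positive-control wells, and each dose-response was summarised as a drug sensitivity score. Scores were averaged over two replicates.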

Assay [2] has as its system Ba/F3 P210-BCR-ABL1 RUNX1-/- (mouse). In short, it runs like this: as §1
The test system of assay [3] is Ba/F3 P210-BCR-ABL1 RUNX1-/mut (mouse). In outline:
as §1

± gives the standard deviation of the averaged measurements.

Consider `COc1cccc2c1C(=O)c1c(O)c3c(c(O)c1C2=O)C[C@@](O)(C(=O)CO)C[C@@H]3O[C@H]1C[C@H](N)[C@@H](O)[C@H](C)O1` [Epirubicin], for which the drug sensitivity score in assay [1] came out at 13.1 ± 0.21; in assay [2] it was 24.9 ± 0.35; in assay [3], 18.6 ± 3.5.

Turning to `CNC(=O)c1nn(C)c2c1C(C)(C)Cc1cnc(Nc3ccc(N4CCN(C)CC4)cc3)nc1-2` [Milciclib], the values for the drug sensitivity score in assay [1], in assay [2] and in assay [3] were 10.8 ± 0.71, 20.9 ± 0.78 and 14.7 ± 0.85, respectively.

On to `C=CC(=O)Nc1cccc(Oc2nc(Nc3ccc(N4CCN(C)CC4)cc3)nc3ccsc23)c1` [Olmutinib], for which the drug sensitivity score in assay [1] was 0; in assay [2], 0.65 ± 0.92; in assay [3], 0.45 ± 0.64.

Consider `CN1CCN(C2CCC(n3cc(-c4ccc(Oc5ccccc5)cc4)c4c(N)ncnc43)CC2)CC1` (centres undefined), for which the drug sensitivity score in assay [1] was determined as 16.6 ± 0.71; in assay [2] it was 23.4 ± 0.28; in assay [3], 17.9 ± 1.1.

As to `Cn1cc(-c2ccc(F)c(C(F)(F)F)c2)nc1C1CCN(c2ncnc3[nH]ncc23)CC1`, the drug sensitivity score turned out to be 0 in assay [1], 1.55 ± 1.3 in assay [2] and 0.7 ± 0.99 in assay [3].

`Nc1cc(F)ccc1NC(=O)/C=C/c1cnn(C/C=C/c2ccccc2)c1` [RGFP966]: the drug sensitivity score came out at 1.3 ± 0.28 in assay [1], 4.8 ± 1.1 in assay [2] and 4.25 ± 0.78 in assay [3].

Turning to `CNc1ncc2cc(-c3cc(NC(=O)NCCC(C)(C)C)c(F)cc3C)c(C)nc2n1`, the figures for the drug sensitivity score in assay [1], in assay [2] and in assay [3] were 9.45 ± 0.21, 22.3 ± 0.28 and 15.6 ± 0.64, respectively.

For the compound `CC(C)(C)c1nc(-c2cccc(NS(=O)(=O)c3c(F)cccc3F)c2F)c(-c2ccnc(N)n2)s1` [Dabrafenib], the values for the drug sensitivity score in assay [1], in assay [2] and in assay [3] were 2.2 ± 0.42, 2.6 ± 0.85 and 0.05 ± 0.071, respectively.

`Cn1c(=O)n(-c2ccc(C(C)(C)C#N)cc2)c2c3cc(-c4cnc5ccccc5c4)ccc3ncc21` [Dactolisib]: the drug sensitivity score in assay [1] was found to be 14.4 ± 0.35; in assay [2], 16.9 ± 0.42; in assay [3], 18.3 ± 0.28.

For `CCS(=O)(=O)c1cccc(-c2cc(C(=O)NC3CCN(C)CC3)c(C)c3[nH]c4ncc(C)cc4c23)c1` [TAK-901], the results for the drug sensitivity score in assay [1], in assay [2] and in assay [3] were 0, 5.8 ± 0.99 and 3.55 ± 0.49, respectively.

In the case of `CCS(=O)(=O)N1CCN(c2ccc(Nc3ncc(C(N)=O)c(NC4CC4)n3)cc2)CC1` [Cerdulatinib], the drug sensitivity score in assay [1] is 9.5 ± 0.42; in assay [2] it was 14.8 ± 0.64; in assay [3], 13.1 ± 1.6.

Consider `C=CCc1cccc(/C=N/NC(=O)CN2CCN(Cc3ccccc3)CC2)c1O` [PAC-1], for which the results for the drug sensitivity score in assay [1], in assay [2] and in assay [3] were 0.15 ± 0.21, 4.95 ± 0.21 and 4.65 ± 0.78, respectively.

`CN(C)c1cc2c(cc1Sc1nc3c(N)nccc3n1CCNCC(C)(C)C)OCO2` [CUDC-305]: the drug sensitivity score was determined as 17.1 ± 0.21 in assay [1], 18.3 ± 1.6 in assay [2] and 16.9 ± 0.21 in assay [3].

On to `CNC(=O)c1ccc(N2C(=S)N(c3cnc(C#N)c(C(F)(F)F)c3)C(=O)C23CCC3)cc1F` [Apalutamide], for which the drug sensitivity score in assay [1], in assay [2] and in assay [3] was 0 each time.

`C/C=C1\NC(=O)[C@H]2CSSCC/C=C/[C@H](CC(=O)N[C@H](C(C)C)C(=O)N2)OC(=O)[C@H](C(C)C)NC1=O` [Romidepsin]: the drug sensitivity score was found to be 29.4 ± 0.42 in assay [1], 29.85 ± 0.071 in assay [2] and 27.6 ± 2.7 in assay [3].

Regarding `C[C@@H]1CN(Cc2ccc(F)cc2)[C@@H](C)CN1C(=O)c1cc2c(C(=O)C(=O)N(C)C)cn(C)c2cc1Cl` [Talmapimod], the values for the drug sensitivity score in assay [1], in assay [2] and in assay [3] were 0, 0.25 ± 0.35 and 0.1 ± 0.14, respectively.

As to `COc1cc2c(Nc3ccc(Cl)c(Cl)c3F)ncnc2cc1OC[C@@H]1C[C@@H]2CN(C)C[C@@H]2C1` [Tesevatinib], the drug sensitivity score turned out to be 0 in assay [1], 0.55 ± 0.49 in assay [2] and 0.9 ± 1.3 in assay [3].

Turning to `COc1cc2nccc(Oc3ccc(NC(=O)NC4CC4)c(Cl)c3)c2cc1C(N)=O` [Lenvatinib], the drug sensitivity score in assay [1] is 0; in assay [2], 2.7 ± 1.1; in assay [3] it was 0.4 ± 0.57.

In the case of `CCN(CC)CCNC(=O)c1c(C)[nH]c(/C=C2\C(=O)Nc3ccc(-c4csc(-c5ccccc5)n4)cc32)c1C` [Amcasertib], the drug sensitivity score in assay [1] stood at 0; in assay [2], 5.95 ± 1.6; in assay [3], 5.35 ± 7.6.

Consider `CNC(=O)c1ccc(-c2cnc3ncc(Cc4ccc5ncccc5c4)n3n2)cc1F` [Capmatinib], for which the drug sensitivity score in assay [1] turned out to be 0.25 ± 0.35; in assay [2] it was 0.2 ± 0.28; in assay [3] it was 0.

On to `COc1ccc(CCc2nc3cc(-c4c(C)noc4C)ccc3n2C[C@H](C)N2CCOCC2)cc1Cl` [SGC-CBP30], for which the drug sensitivity score in assay [1] came out at 5.5 ± 0.28; in assay [2] it was 10.2 ± 2.8; in assay [3], 12.7 ± 4.6.

Consider `Cc1cnc(Nc2ccc(OCCN3CCCC3)cc2)nc1Nc1cccc(S(=O)(=O)NC(C)(C)C)c1` [Fedratinib], for which the drug sensitivity score in assay [1] is 5.8; in assay [2], 11.7 ± 2; in assay [3] it was 10.4 ± 2.7.

Regarding `CCN1C(=O)CNc2ncc(-c3ccc(-c4nc[nH]n4)nc3C)nc21` [CC-115], the values for the drug sensitivity score in assay [1], in assay [2] and in assay [3] were 7.65 ± 0.21, 12.6 ± 2.9 and 12.8 ± 1.9, respectively.

Regarding `CCCOc1ccn2c(C(C)=O)cc(-c3ccccc3S(C)(=O)=O)c2c1` [GSK2801], the drug sensitivity score was determined as 0 in assay [1], 0.1 ± 0.14 in assay [2] and 2.3 ± 3.2 in assay [3].

As to `CCCCCCCCCCCCCCCCOP(=O)([O-])OCC[N+](C)(C)C` [Miltefosine], the drug sensitivity score in assay [1] turned out to be 2 ± 1.4; in assay [2], 7.05 ± 0.21; in assay [3], 5.5 ± 1.3.

Consider `O=C(Nc1cccc(NC(=O)c2cccc(O)c2O)c1)c1cccc(O)c1O` [MST-312], for which the drug sensitivity score in assay [1] came out at 17.2 ± 0.42; in assay [2] it was 16.6 ± 0.21; in assay [3] it was 17.1 ± 2.

In the case of `NC(=O)N1CCC(CC(=O)N2CCC([C@H]3c4ncc(Br)cc4CCc4cc(Cl)cc(Br)c43)CC2)CC1` [Lonafarnib], the drug sensitivity score in assay [1] is 8.2 ± 0.14; in assay [2], 12.1 ± 17; in assay [3], 13.8 ± 9.8.

Regarding `Nc1cc(F)ccc1NC(=O)c1ccc(CNC(=O)/C=C/c2cccnc2)cc1` [Tucidinostat], the drug sensitivity score in assay [1] is 4.9 ± 0.14; in assay [2], 9.05 ± 2.8; in assay [3] it was 8.05 ± 4.6.

For the compound `C[C@@H]1COCCN1c1cc(C2([S@](C)(=N)=O)CC2)nc(-c2cc[nH]c3nccc2-3)n1` [AZD6738], the drug sensitivity score in assay [1] was 18 ± 0.57; in assay [2] it was 20.1 ± 1.4; in assay [3], 19.2 ± 0.71.

As to `COc1cc(C(=O)O)ccc1NC(=O)[C@@H]1N[C@@H](CC(C)(C)C)[C@](C#N)(c2ccc(Cl)cc2F)[C@H]1c1cccc(Cl)c1F` [Idasanutlin], the values for the drug sensitivity score in assay [1], in assay [2] and in assay [3] were 5.05 ± 0.21, 9.4 ± 13 and 8.5 ± 12, respectively.

Take `C=CCN(/C=C1/C(=O)O[C@H](COC)[C@@]2(C)C1=C(O)C(=O)C1=C2[C@H](OC(C)=O)C[C@]2(C)C(=O)CC[C@@H]12)CC=C` [Sonolisib]: the figures for the drug sensitivity score in assay [1], in assay [2] and in assay [3] were 0, 1.7 ± 1.1 and 0.7 ± 0.99, respectively.

With `CC(C)C[C@H](NC(=O)[C@@H](COC(C)(C)C)NC(=O)[C@H](Cc1ccc(O)cc1)NC(=O)[C@H](CO)NC(=O)[C@H](Cc1c[nH]c2ccccc12)NC(=O)[C@H](Cc1cnc[nH]1)NC(=O)[C@@H]1CCC(=O)N1)C(=O)N[C@@H](CCCNC(=N)N)C(=O)N1CCC[C@H]1C(=O)NNC(N)=O` [Goserelin], the results for the drug sensitivity score in assay [1], in assay [2] and in assay [3] were 0, 0 and 0.4, respectively.

On to `COc1cc2c(cc1OC(C)C)[C@H](c1ccc(Cl)cc1)N(c1ccc(N(C)C[C@H]3CC[C@H](N4CCN(C)C(=O)C4)CC3)cc1)C(=O)C2` [NVP-CGM097], for which the values for the drug sensitivity score in assay [1], in assay [2] and in assay [3] were 6.3 ± 0.28, 8.7 ± 0.71 and 8.8 ± 3, respectively.

For `CNc1nc(Nc2cn(C(C)(C)C#N)nc2C)ncc1C(F)(F)F` [GNE-0877], the drug sensitivity score in assay [1], in assay [2] and in assay [3] was 0 in each case.

As for `COc1c(OCCCN2CCOCC2)ccc2c1N=C(NC(=O)c1cnc(N)nc1)N1CCN=C21` [Copanlisib], the drug sensitivity score in assay [1] amounted to 1.4 ± 0.99; in assay [2] it was 8.65 ± 1.5; in assay [3], 6.1 ± 3.4.

Take `CO[C@H]1CC[C@H](N2C(=O)CNc3ncc(-c4ccc(C(C)(C)O)nc4)nc32)CC1` [CC-223]: the drug sensitivity score came to 2.45 ± 0.071 in assay [1], 7.25 ± 0.64 in assay [2] and 6.65 ± 2.2 in assay [3].

For `O=C(O)CC1CC(c2ccccc2)=NO1` (centres undefined) [VGX-1027], the drug sensitivity score in assay [1] was determined as 0; in assay [2] it was 0.9 ± 1.3; in assay [3] it was 0.05 ± 0.071.

For `N.N.[Cl][Pt][Cl]` [Cisplatin], the results for the drug sensitivity score in assay [1], in assay [2] and in assay [3] were 5.5 ± 0.14, 6.3 ± 1.4 and 7 ± 1.6, respectively.
